Results: patent US6515124B2, “Dehydroamino acids” (Hoffman-La Roche Inc., priority 2000, dated 2003)

Key:
[1] = target: T1, LFA-1 binding to immobilized ICAM-1 (Homo sapiens, UniProt P05107+P20701); assay: LFA-1/ICAM-1 Protein-Protein Assay (solid-phase ELISA); conditions: 5dICAM-Ig coated plates; membrane-bound LFA-1 from transfected 293 cells
T1 construct: made in house; host or cells: transfected 293 cells (LFA-1)
Method: LFA-1/ICAM-1 Protein-Protein Assay
LFA-1/ICAM-1 antagonist activity, defined as the ability to block LFA-1 binding to immobilized ICAM-1, was quantitated using a solid-phase ELISA. Typically, fusion protein consisting of the entire extracellular domain of human ICAM-1 and the Fc domain of human IgG (5dICAM-Ig) was coated onto 96-well microtiter plates (0.15 μg in 100 μL PBS) overnight at 4° C. The plates were then blocked with 150 μL of 1% BSA/1 mM MnCl2/0.14 M NaCl/20 mM HEPES, pH 7.2 for 1 h at 37° C. and washed 3 times (150 μL each) with Wash Buffer (50 mM Tris, pH 7.4/100 mM NaCl/1 mM MnCl2/0.05% Tween 20). Stock solutions (100 μM in 100% DMSO) of test compounds were diluted 50 fold with 150 μL of Binding Buffer (0.05% BSA/0.05% Tween 20/1 mM MnCl2/0.14 M NaCl/20 mM HEPES, pH 7.2) plus 10% DMSO. A series of 1:4 dilutions were performed to achieve a concentration range of 0.12 nM-2 μM. Fifty μL per well of each dilution was added to the ICAM-1 coated plates, followed by 50 μL per well of membrane-bound LFA-1 (280 ng/mL in Binding Buffer) derived from transfected 293 cells. The plates were shaken vigorously for 1 min (room temperature) and gently for 2 h (37° C.). After incubation, the plates were washed 3 times (150 μL each) with Wash Buffer. Mouse anti-human integrin β2 monoclonal antibody was added (100 μL/well, 1 μg/ml in Binding Buffer) and allowed to incubate for 1 h (37° C.) with gentle agitation. The plates were then washed 3 times with Wash Buffer. HRP-conjugated goat anti-mouse IgG (100 μL/well, 1:1500 dilution in Binding Buffer) was added to each well, followed by incubation for 1 h (37° C.) and concluded by three washes (150 μL each) with Wash Buffer. TMB solution (100 μL per well) was added for color development (10 min). The reaction was stopped by the addition of 100 μL of 1M H3PO4 to each well. The plates were then read at 450 nm.

[2] = system: T lymphocyte proliferation (murine spleen cells); assay: Mixed Lymphocyte Reaction (MLR), one-way; type: cell-based, mice; conditions: Mus musculus, T-lymphocyte, light or radiation study, 72 h, C57B1/6 spleen cells with irradiated BALB/c spleen cells; tritiated thymidine incorporation, 3 days
Description: Mixed Lymphocyte Reaction (MLR)
Admixture of murine spleen cells from two different inbred strains of mice induces proliferation of T lymphocytes. The magnitude of T cell proliferation depends on the extent of disparity in the major histocompatibility antigens between the two strains. Splenic T lymphocytes from both strains proliferate due to alloantigen recognition, a process for which the interaction of ICAM-1 on antigen-presenting cells with LFA-1 on lymphocytes is necessary. The ability of antagonists to inhibit T lymphocyte proliferation following recognition of alloantigens was assessed in a one-way MLR, where cells from one strain were irradiated to permit measurement of the proliferative response of cells from the other strain. Spleen cells were washed three times in tissue culture medium (TCM; see below). Fifty microliters of a spleen cell suspension (prepared at 10×10^6 cells/ml in TCM) obtained from C57B1/6 mice were added to an equal number of lethally-irradiated (2000 rads) spleen cells obtained from BALB/c mice in a 96-well U-bottom tissue culture plate (Costar, 3799). One hundred microliters of serial dilutions of antagonists or TCM were added to the spleen cell mixture. The total volume in each well was 200 μL. TCM was RPMI1640 containing 10% heat-inactivated fetal bovine serum, […] L-glutamine, 100 Units/ml each of penicillin and streptomycin and 5×10^−5 M 2-mercaptoethanol. Dilutions of antagonists were prepared in TCM. Plates were incubated in 5% CO2 for 3 days. On the third day, 0.5 μCi of tritiated thymidine (10 μCi/mL) was added to all the wells. Cells were harvested 6 h later on a 96-well plate harvester and the amount of tritiated thymidine incorporated was assessed in a liquid scintillation counter.

T1 sequence (P20701 26-1170): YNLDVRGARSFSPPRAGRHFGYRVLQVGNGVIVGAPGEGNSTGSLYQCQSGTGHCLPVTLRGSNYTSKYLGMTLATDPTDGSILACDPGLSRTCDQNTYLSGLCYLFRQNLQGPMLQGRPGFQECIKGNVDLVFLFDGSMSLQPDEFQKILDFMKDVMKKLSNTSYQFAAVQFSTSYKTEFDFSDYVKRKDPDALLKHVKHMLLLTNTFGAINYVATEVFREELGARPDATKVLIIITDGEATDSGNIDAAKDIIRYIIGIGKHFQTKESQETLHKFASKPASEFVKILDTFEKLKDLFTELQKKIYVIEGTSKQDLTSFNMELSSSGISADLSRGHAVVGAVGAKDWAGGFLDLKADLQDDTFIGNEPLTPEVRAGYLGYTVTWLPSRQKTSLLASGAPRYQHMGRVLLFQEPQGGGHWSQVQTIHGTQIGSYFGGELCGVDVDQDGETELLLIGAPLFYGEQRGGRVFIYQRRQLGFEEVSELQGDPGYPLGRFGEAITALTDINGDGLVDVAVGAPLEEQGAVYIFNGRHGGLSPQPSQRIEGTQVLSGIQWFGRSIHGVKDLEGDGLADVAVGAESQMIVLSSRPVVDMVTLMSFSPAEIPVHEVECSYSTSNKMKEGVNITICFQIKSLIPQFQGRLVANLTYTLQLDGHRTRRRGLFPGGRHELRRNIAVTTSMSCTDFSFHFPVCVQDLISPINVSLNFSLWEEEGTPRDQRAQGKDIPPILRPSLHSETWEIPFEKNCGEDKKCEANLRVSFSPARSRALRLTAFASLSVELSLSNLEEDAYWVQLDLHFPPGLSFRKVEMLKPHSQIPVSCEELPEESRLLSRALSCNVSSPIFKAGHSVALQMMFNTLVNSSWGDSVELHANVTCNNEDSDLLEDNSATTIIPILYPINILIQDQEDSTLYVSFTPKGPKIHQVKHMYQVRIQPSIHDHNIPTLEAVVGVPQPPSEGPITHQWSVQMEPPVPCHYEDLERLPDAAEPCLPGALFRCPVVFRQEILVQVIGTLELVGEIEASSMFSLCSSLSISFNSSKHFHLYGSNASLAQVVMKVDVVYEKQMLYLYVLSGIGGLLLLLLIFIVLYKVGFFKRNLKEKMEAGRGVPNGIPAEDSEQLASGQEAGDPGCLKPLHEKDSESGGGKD
T1 sequence (P05107 23-769): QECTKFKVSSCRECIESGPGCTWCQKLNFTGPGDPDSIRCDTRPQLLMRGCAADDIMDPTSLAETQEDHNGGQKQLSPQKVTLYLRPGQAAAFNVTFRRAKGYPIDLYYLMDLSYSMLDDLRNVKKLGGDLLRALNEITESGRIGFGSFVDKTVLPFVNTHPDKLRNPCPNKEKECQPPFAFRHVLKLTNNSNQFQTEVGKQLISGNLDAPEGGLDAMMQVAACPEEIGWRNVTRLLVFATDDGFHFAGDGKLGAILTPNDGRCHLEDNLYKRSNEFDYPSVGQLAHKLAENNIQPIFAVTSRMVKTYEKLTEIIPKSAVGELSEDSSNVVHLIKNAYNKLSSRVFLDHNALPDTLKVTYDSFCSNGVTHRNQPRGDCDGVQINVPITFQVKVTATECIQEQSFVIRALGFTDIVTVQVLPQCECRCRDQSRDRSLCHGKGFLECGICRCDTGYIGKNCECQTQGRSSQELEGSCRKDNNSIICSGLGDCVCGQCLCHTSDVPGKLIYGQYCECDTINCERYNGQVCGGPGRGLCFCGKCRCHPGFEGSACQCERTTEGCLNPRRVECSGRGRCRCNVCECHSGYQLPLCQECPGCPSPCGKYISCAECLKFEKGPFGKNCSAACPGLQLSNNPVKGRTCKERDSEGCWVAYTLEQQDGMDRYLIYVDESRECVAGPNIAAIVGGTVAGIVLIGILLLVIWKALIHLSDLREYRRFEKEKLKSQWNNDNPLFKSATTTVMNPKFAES

| Compound | IC50 [1] [nM] | melting point [°C] | IC50 [2] [nM] |
| --- | --- | --- | --- |
| Cc1nc(C)c(/C=C(\NC(=O)c2ccc(C(=O)CCc3cccc(O)c3)cc2Cl)C(=O)O)s1 [Example 295] | 3 |  | 10000 |
| CC(C)c1ncsc1/C=C(\NC(=O)c1ccc(C(=O)NCc2cccc(O)c2)cc1Cl)C(=O)O [Example 300, (Z)-2-[[2-Chloro-4-[[(3-hydroxybenzyl)amino]carbonyl]benzoyl]amino]-3-[4-(1-methylethyl)thiazol-5-yl]propenoic Acid] | 32.5 |  | 21500 |
| Cc1nc(C(C)C)sc1/C=C(\NC(=O)c1ccc(C(=O)NCc2cccc(O)c2)cc1Cl)C(=O)O [Example 301, 2-[[2-Chloro-4-[[(3-hydroxybenzyl)amino]carbonyl]benzoyl]amino]-3-[2-(1-methylethyl)-4-methylthiazol-5-yl]propenoic Acid] | 3.03 |  | 4250 |
| CCc1nc(C)c(/C=C(\NC(=O)c2ccc(C(=O)NCc3cccc(O)c3)cc2Cl)C(=O)O)s1 [Example 304, (Z)-2-[[2-Chloro-4-[[(3-hydroxybenzyl)amino]carbonyl]benzoyl]amino]-3-(2-ethyl-4-methylthiazole-5-yl)propenoic Acid] | 3 | > 200 | 2100 |
| O=C(O)/C(=C/c1ccccc1)NC(=O)c1ccc(C(=O)NCc2cccc3[nH]ccc23)cc1Cl [Example 306] | 10.4 |  | 13800 |
| O=C(O)/C(=C/c1ccc2ccccc2c1)NC(=O)c1ccc(C(=O)NCc2cccc3[nH]ccc23)cc1Cl [Example 307] | 18.6 |  | 27000 |
| O=C(O)/C(=C/c1ccccc1O)NC(=O)c1ccc(C(=O)NCc2cccc3[nH]ccc23)cc1Cl [Example 309] | 18.7 |  | 14500 |
| O=C(O)/C(=C/c1cc2c(cc1Cl)OCO2)NC(=O)c1ccc(C(=O)NCc2cccc(O)c2)cc1Cl [Example 315] | 1.89 |  | 2500 |
| Cc1nc(C)c(/C=C(\NC(=O)c2ccc(C(=O)NCc3cccc(N)c3)cc2Br)C(=O)O)s1 [Example 321] | 7.52 |  | 11500 |
| Nc1cccc(CNC(=O)c2ccc(C(=O)N/C(=C\c3cnc4ccccc4c3)C(=O)O)c(Br)c2)c1 [Example 322] | 1.74 |  | 4450 |

Now from value to compound, other results behind:

| IC50 [1] [nM] | melting point [°C] | Compound | IC50 [2] [nM] |
| --- | --- | --- | --- |
| 4.13 |  | Cn1ccc2ccc(/C=C(\NC(=O)c3ccc(C(=O)NCc4cccc(O)c4)cc3Cl)C(=O)O)cc21 [Example 305] | 7250 |
| 11.8 |  | Cc1cc(C(=O)NCc2cccc(O)c2)ccc1C(=O)N/C(=C\c1ccccc1)C(=O)O [Example 311] | 10500 |
| 4.7 |  | Cc1cc(C(=O)NCc2cccc(O)c2)ccc1C(=O)N/C(=C\c1cnc2ccccc2c1)C(=O)O [Example 312] | 990 |
| 3.05 |  | O=C(O)/C(=C/c1ccc(Br)cc1)NC(=O)c1ccc(C(=O)NCc2cccc(O)c2)cc1Cl [Example 314, (Z)-3-(4-Bromophenyl)-2-[[2-chloro-4-[[(3-hydroxybenzyl)amino]carbonyl]benzoyl]amino]propenoic Acid] | 6100 |
| 3 |  | Cc1cc(C(=O)NCc2cccc(O)c2)ccc1C(=O)N/C(=C\c1ccc2cc[nH]c2c1)C(=O)O [Example 316, (Z)-2-[[4-[[(3-Hydroxybenzyl)amino]carbonyl]-2-methylbenzoyl]amino]-3-(1N-indol-6-yl)propenoic Acid] | 1150 |
| 0.84 |  | NS(=O)(=O)c1ccc(/C=C(\NC(=O)c2ccc(C(=O)NCc3cccc(O)c3)cc2Cl)C(=O)O)cc1 [Example 323, (Z)-3-(4-Aminosulfonylphenyl)-2-[[2-chloro-4-[[(3-hydroxybenzyl)amino]carbonyl]benzoyl]amino]propenoic Acid] | 230 |
